From US9738634B2, “Heterocyclic amide compound and herbicide” (SYNGENTA PARTICIPATIONS AG, priority 2013, dated 2017)

What was measured:
Type in all cases: in vivo
Settings in all cases: treatment dosage 315 g/ha
[1] = tested on: transplanted rice; test: Test Example 1: preemergent weed treatment in the submerged state, effect on crop; a: transplanted rice
Outline: (§1)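 Alluvial soil in Wagner pots flooded to 4 cm; barnyard grass, bulrush and oval-leafed pondweed seeds sown, then 2.5-leaf rice seedlings transplanted. Same day, emulsified compound diluted in water to set g/ha dosages and applied to water surface; greenhouse 25–30 °C, effect scored by criteria after 3 weeks.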

[2] = tested on: rapeseed; test: Test Example 3: soil treatment, effect on crop; g: rapeseed
Outline: (§2)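 Crop and weed responses were judged three weeks after a uniform surface spray of the water-diluted emulsion at the given g/ha rate. Seeds sat beneath about 1.5 cm of sterilized diluvial soil, and boxes stood in a greenhouse at 25 to 30° C.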

[3] = tested on: Indian mallow; test: Test Example 3: weedkilling efficacy through soil treatment; K: Indian mallow
Outline: as §2

[4] = tested on: wheat; test: Test Example 4: foliar treatment, effect on crop; e: wheat
Outline: (§3)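 Seeds are spot-sown into sterilized diluvial soil and covered with about 1.5 cm of soil. After 14 days' greenhouse growth at 25 to 30° C, plants are sprayed on stems and leaves with diluted emulsion at the stated g/ha rate, then scored at 3 weeks.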

[5] = tested on: soybean; test: Test Example 3: soil treatment, effect on crop; d: soybean
Outline: as §2

[6] = tested on: redroot pigweed; test: Test Example 4: weedkilling efficacy by foliar treatment; L: redroot pigweed
Outline: as §3

[7] = tested on: common wind-grass; test: Test Example 3: weedkilling efficacy through soil treatment; J: common wind-grass
Outline: as §2

[8] = tested on: Indian mallow; test: Test Example 4: weedkilling efficacy by foliar treatment; K: Indian mallow
Outline: as §3

[9] = tested on: directly sown rice; test: Test Example 4: foliar treatment, effect on crop; b: directly sown rice
Outline: as §3

[10] = tested on: barnyard grass; test: Test Example 1: weedkilling efficacy, preemergent weed treatment in the submerged state; A: barnyard grass
Outline: as §1

[11] = tested on: rapeseed; test: Test Example 4: foliar treatment, effect on crop; g: rapeseed
Outline: as §3

[12] = tested on: crabgrass; test: Test Example 4: weedkilling efficacy by foliar treatment; D: crabgrass
Outline: as §3

[13] = tested on: birds-eye speedwell; test: Test Example 3: weedkilling efficacy through soil treatment; p: birds-eye speedwell
Outline: as §2

[14] = tested on: directly sown rice; test: Test Example 3: soil treatment, effect on crop; b: directly sown rice
Outline: as §2

[15] = tested on: green foxtail; test: Test Example 4: weedkilling efficacy by foliar treatment; E: green foxtail
Outline: as §3

[16] = tested on: wild oat; test: Test Example 4: weedkilling efficacy by foliar treatment; G: wild oat
Outline: as §3

[17] = tested on: corn; test: Test Example 3: soil treatment, effect on crop; c: corn
Outline: as §2

[18] = tested on: green foxtail; test: Test Example 3: weedkilling efficacy through soil treatment; E: green foxtail
Outline: as §2

[19] = tested on: oval-leafed pondweed; test: Test Example 1: weedkilling efficacy, preemergent weed treatment in the submerged state; C: oval-leafed pondweed
Outline: as §1

[20] = tested on: bulrush; test: Test Example 1: weedkilling efficacy, preemergent weed treatment in the submerged state; B: bulrush
Outline: as §1

[21] = tested on: common wind-grass; test: Test Example 4: weedkilling efficacy by foliar treatment; J: common wind-grass
Outline: as §3

[22] = tested on: barnyard grass; test: Test Example 4: weedkilling efficacy by foliar treatment; F: barnyard grass
Outline: as §3

[23] = tested on: barnyard grass; test: Test Example 2: weedkilling efficacy, growth period weed treatment in the submerged state; A: barnyard grass
Outline: (§4)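 First, alluvial soil in pots is flooded to 4 cm and mixed seed is sown. Next, plants grow in a greenhouse at 25 to 30° C until the 1-2 leaf stage. Then diluted emulsion is applied onto the water surface at the given g/ha rate, and injury is assessed after 3 weeks.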

[24] = tested on: redroot pigweed; test: Test Example 3: weedkilling efficacy through soil treatment; L: redroot pigweed
Outline: as §2

[25] = tested on: wheat; test: Test Example 3: soil treatment, effect on crop; e: wheat
Outline: as §2

[26] = tested on: barnyard grass; test: Test Example 3: weedkilling efficacy through soil treatment; F: barnyard grass
Outline: as §2

[27] = tested on: birds-eye speedwell; test: Test Example 4: weedkilling efficacy by foliar treatment; p: birds-eye speedwell
Outline: as §3

[28] = tested on: beet; test: Test Example 4: foliar treatment, effect on crop; f: beet
Outline: as §3

[29] = tested on: beet; test: Test Example 3: soil treatment, effect on crop; f: beet
Outline: as §2

[30] = tested on: wild oat; test: Test Example 3: weedkilling efficacy through soil treatment; G: wild oat
Outline: as §2

[31] = tested on: corn; test: Test Example 4: foliar treatment, effect on crop; c: corn
Outline: as §3

[32] = tested on: crabgrass; test: Test Example 3: weedkilling efficacy through soil treatment; D: crabgrass
Outline: as §2

[33] = tested on: chickweed; test: Test Example 3: weedkilling efficacy through soil treatment; N: chickweed
Outline: as §2

[34] = tested on: black-grass; test: Test Example 3: weedkilling efficacy through soil treatment; H: black-grass
Outline: as §2

[35] = tested on: chickweed; test: Test Example 4: weedkilling efficacy by foliar treatment; N: chickweed
Outline: as §3

[36] = tested on: Italian ryegrass; test: Test Example 3: weedkilling efficacy through soil treatment; I: Italian ryegrass
Outline: as §2

[37] = tested on: oval-leafed pondweed; test: Test Example 2: weedkilling efficacy, growth period weed treatment in the submerged state; C: oval-leafed pondweed
Outline: as §4

[38] = tested on: Italian ryegrass; test: Test Example 4: weedkilling efficacy by foliar treatment; I: Italian ryegrass
Outline: as §3

[39] = tested on: catchweed; test: Test Example 4: weedkilling efficacy by foliar treatment; O: catchweed
Outline: as §3

[40] = tested on: bulrush; test: Test Example 2: weedkilling efficacy, growth period weed treatment in the submerged state; B: bulrush
Outline: as §4

[41] = tested on: black-grass; test: Test Example 4: weedkilling efficacy by foliar treatment; H: black-grass
Outline: as §3

[42] = tested on: soybean; test: Test Example 4: foliar treatment, effect on crop; d: soybean
Outline: as §3

## CC1=C(c2ccccc2)C(=O)N(C(C)(C)C(=O)Nc2cccc(C(F)F)n2)CO1 [B-2-55]
[1]
  a (transplanted rice) effect on crop grade: 3 (weed kill ratio 40% or more, less than 70%)
[2]
  g (rapeseed) effect on crop grade: 2 (weed kill ratio 20% or more, less than 40%)
[3]
  K (Indian mallow) weedkilling efficacy grade: 1 (weed kill ratio 5% or more, less than 20%)
[4]
  e (wheat) effect on crop grade: 2 (weed kill ratio 20% or more, less than 40%)
[5]
  d (soybean) effect on crop grade: 3 (weed kill ratio 40% or more, less than 70%)
[6]
  L (redroot pigweed) weedkilling efficacy grade: 4 (weed kill ratio 70% or more, less than 90%)
[7]
  J (common wind-grass) weedkilling efficacy grade: 5 (weed kill ratio 90% or more, (practically complete withering))
[8]
  K (Indian mallow) weedkilling efficacy grade: 4 (weed kill ratio 70% or more, less than 90%)
[9]
  b (directly sown rice) effect on crop grade: 5 (weed kill ratio 90% or more, (practically complete withering))
[10]
  A (barnyard grass) weedkilling efficacy grade: 5 (weed kill ratio 90% or more, (practically complete withering))
[11]
  g (rapeseed) effect on crop grade: 4 (weed kill ratio 70% or more, less than 90%)
[12]
  D (crabgrass) weedkilling efficacy grade: 5 (weed kill ratio 90% or more, (practically complete withering))
[13]
  P (birds-eye speedwell) weedkilling efficacy grade: 5 (weed kill ratio 90% or more, (practically complete withering))
[14]
  b (directly sown rice) effect on crop grade: 4 (weed kill ratio 70% or more, less than 90%)
[15]
  E (green foxtail) weedkilling efficacy grade: 5 (weed kill ratio 90% or more, (practically complete withering))
[16]
  G (wild oat) weedkilling efficacy grade: 3 (weed kill ratio 40% or more, less than 70%)
[17]
  c (corn) effect on crop grade: 0 (weed kill ratio 5% or less (practically no effect))
[18]
  E (green foxtail) weedkilling efficacy grade: 5 (weed kill ratio 90% or more, (practically complete withering))
[19]
  C (oval-leafed pondweed) weedkilling efficacy grade: 5 (weed kill ratio 90% or more, (practically complete withering))
[20]
  B (bulrush) weedkilling efficacy grade: 5 (weed kill ratio 90% or more, (practically complete withering))
[21]
  J (common wind-grass) weedkilling efficacy grade: 5 (weed kill ratio 90% or more, (practically complete withering))
[22]
  F (barnyard grass) weedkilling efficacy grade: 5 (weed kill ratio 90% or more, (practically complete withering))
[23]
  A (barnyard grass) weedkilling efficacy grade: 5 (weed kill ratio 90% or more, (practically complete withering))
[24]
  L (redroot pigweed) weedkilling efficacy grade: 4 (weed kill ratio 70% or more, less than 90%)
[25]
  e (wheat) effect on crop grade: 0 (weed kill ratio 5% or less (practically no effect))
[26]
  F (barnyard grass) weedkilling efficacy grade: 5 (weed kill ratio 90% or more, (practically complete withering))
[27]
  P (birds-eye speedwell) weedkilling efficacy grade: 5 (weed kill ratio 90% or more, (practically complete withering))
[28]
  f (beet) effect on crop grade: 4 (weed kill ratio 70% or more, less than 90%)
[29]
  f (beet) effect on crop grade: 3 (weed kill ratio 40% or more, less than 70%)
[30]
  G (wild oat) weedkilling efficacy grade: 4 (weed kill ratio 70% or more, less than 90%)
[31]
  c (corn) effect on crop grade: 4 (weed kill ratio 70% or more, less than 90%)
[32]
  D (crabgrass) weedkilling efficacy grade: 5 (weed kill ratio 90% or more, (practically complete withering))
[33]
  N (chickweed) weedkilling efficacy grade: 4 (weed kill ratio 70% or more, less than 90%)
[34]
  H (black-grass) weedkilling efficacy grade: 5 (weed kill ratio 90% or more, (practically complete withering))
[35]
  N (chickweed) weedkilling efficacy grade: 4 (weed kill ratio 70% or more, less than 90%)
[36]
  I (Italian ryegrass) weedkilling efficacy grade: 5 (weed kill ratio 90% or more, (practically complete withering))
[37]
  C (oval-leafed pondweed) weedkilling efficacy grade: 5 (weed kill ratio 90% or more, (practically complete withering))
[38]
  I (Italian ryegrass) weedkilling efficacy grade: 4 (weed kill ratio 70% or more, less than 90%)
[39]
  O (catchweed) weedkilling efficacy grade: 5 (weed kill ratio 90% or more, (practically complete withering))
[40]
  B (bulrush) weedkilling efficacy grade: 5 (weed kill ratio 90% or more, (practically complete withering))
[41]
  H (black-grass) weedkilling efficacy grade: 5 (weed kill ratio 90% or more, (practically complete withering))
[42]
  d (soybean) effect on crop grade: 4 (weed kill ratio 70% or more, less than 90%)
